According to PubChem BioAssay (NCI):
Where “and” joins values, the source holds several entries; their conditions need not be identical. Equal values may be shown once.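 Tested at 5 concentrations; 48 h exposure; 96-well plates; endpoints linearly interpolated, else capped at highest concentration. GI50 marks 50% less growth. The concentration for full growth arrest is given as TGI.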

Key:
Assay in all cases: DTP human tumour cell line panel, 48 h
A549 NSCLC = tested on: A549 NSCLC
NCI/ADR-RES ovarian = tested on: NCI/ADR-RES ovarian
OVCAR-8 ovarian = tested on: OVCAR-8 ovarian
UACC-257 melanoma = tested on: UACC-257 melanoma
ACHN renal = tested on: ACHN renal
TK-10 renal = tested on: TK-10 renal
DU-145 prostate = tested on: DU-145 prostate
HT29 colon = tested on: HT29 colon
MALME-3M melanoma = tested on: MALME-3M melanoma
KM12 colon = tested on: KM12 colon

| Structure (SMILES) | GI50 (A549 NSCLC) | TGI (A549 NSCLC) | GI50 (NCI/ADR-RES ovarian) | TGI (NCI/ADR-RES ovarian) | GI50 (OVCAR-8 ovarian) | TGI (OVCAR-8 ovarian) | GI50 (UACC-257 melanoma) | TGI (UACC-257 melanoma) | GI50 (ACHN renal) | TGI (ACHN renal) | GI50 (TK-10 renal) | TGI (TK-10 renal) | GI50 (DU-145 prostate) | TGI (DU-145 prostate) | GI50 (HT29 colon) | TGI (HT29 colon) | GI50 (MALME-3M melanoma) | TGI (MALME-3M melanoma) | GI50 (KM12 colon) | TGI (KM12 colon) |
| --- | --- | --- | --- | --- | --- | --- | --- | --- | --- | --- | --- | --- | --- | --- | --- | --- | --- | --- | --- | --- |
| CN(C)c1ccc(/C=C(\C#N)c2ccccc2)cc1 | 0.73 µM and 0.796 µM and 0.691 µM | > 100 µM | 0.348 µM and 0.395 µM and 0.324 µM | 49.9 µM and > 100 µM and 74.1 µM | 0.61 µM and 2.52 µM and 2.65 µM | > 100 µM | 44.7 µM and 57.4 µM | > 100 µM | 0.901 µM and 0.688 µM and 1.37 µM | > 100 µM | 0.553 µM and 0.999 µM and 4.9 µM | > 100 µM | 0.617 µM and 1.51 µM and 1.48 µM | 22.3 µM and > 100 µM | 0.33 µM and 0.352 µM and 0.347 µM | 10.9 µM and 71.3 µM | 2.58 µM and 18 µM | > 100 µM | 0.307 µM and 0.425 µM and 0.437 µM | 21.8 µM and > 100 µM |
| CC(=O)N(C)c1cc(NCc2ccccc2)ccc1OCc1ccccc1 | – | 36.7 µM | – | 44.8 µM | – | 32.7 µM | – | 31.1 µM | – | 36.5 µM | – | 33.5 µM | – | 32.7 µM | – | 43 µM | – | 35.3 µM | – | 47.4 µM |
| O=C(O)c1ccc(NCc2nc3ccccc3[nH]2)cc1 | > 100 µM | > 100 µM | > 100 µM | > 100 µM | > 100 µM | > 100 µM | > 100 µM | > 100 µM | > 100 µM | > 100 µM | > 100 µM | > 100 µM | > 100 µM | > 100 µM | > 100 µM | > 100 µM | 1.25 µM | 7.52 µM | > 100 µM | > 100 µM |
| [N-]=[N+]=NCCCn1c2c(c3ccc([N+](=O)[O-])cc3c1=O)C(=O)c1cc(I)ccc1-2 | 8.06 µM | > 100 µM | 4.17 µM | 46.6 µM | 11.3 µM | > 100 µM | 26.7 µM | > 100 µM | 2.25 µM | 7.5 µM | 71.9 µM | > 100 µM | 1.78 µM | 6.95 µM | 10.7 µM | > 100 µM | 12.5 µM | 77 µM | 18 µM | > 100 µM |
| CC(=O)OC1CC2C(C)(C)CCC[C@]2(C)C2=C1C(O)=C(C(C)C)C(=O)C2=O (some centres not stated) | 0.521 µM | 3.01 µM | 0.817 µM | 5.13 µM | 2.14 µM | 14.5 µM | 0.932 µM | 3 µM | 0.465 µM | 1.66 µM | 1.43 µM | 12.8 µM | 0.867 µM | 2.28 µM | – | – | 0.341 µM | 1.59 µM | 0.644 µM | 2.15 µM |
| C[C@@H]1CC[C@H]2[C@@H](C)C(OC/C=C/COC3O[C@@H]4O[C@@]5(C)CC[C@H]6[C@H](C)CC[C@@H]([C@H]3C)[C@@]46OO5)O[C@@H]3O[C@@]4(C)CC[C@@H]1[C@]32OO4 (some centres not stated) | < 0.0161 µM | > 68.3 µM | 0.0887 µM | 14.8 µM | < 0.01 µM | > 38 µM | 0.0401 µM | 48 µM | < 0.0169 µM | – | < 0.0104 µM | 24.8 µM | 30.5 µM | > 100 µM | < 0.01 µM | > 100 µM | 0.0428 µM | 61.5 µM | < 0.01 µM | – |
| COc1ccc(C2CC(c3ccccc3)=NN2C(=O)c2cc(OC)c(OC)c(OC)c2)cc1O (configuration not stated) | 0.545 µM | > 100 µM | 0.552 µM | – | 0.659 µM | > 76.5 µM | 22.1 µM | > 54.3 µM | 0.816 µM | 58.1 µM | 14.7 µM | > 100 µM | 0.479 µM | – | 2.96 µM | 8.31 µM | 41.2 µM | > 100 µM | 0.371 µM | 24.1 µM |
| CCC1=C[C@@H]2CN(C1)Cc1c([nH]c3ccccc13)[C@@](C(=O)OC)(c1cc3c(cc1OC)N(C)[C@H]1[C@@](O)(C(=O)OC)[C@H](OC(C)=O)[C@]4(CC)C=CCN5CC[C@]31[C@@H]54)C2 | < 0.019 µM | > 34.1 µM | 1.58 µM | 30.5 µM | < 0.0213 µM | 25.6 µM | – | – | 0.194 µM | 25.6 µM | 0.641 µM | 16.7 µM | < 0.01 µM | < 0.01 µM | < 0.01 µM | > 41.6 µM | < 0.01 µM | 4.92 µM | – | – |
| Cc1cc2c(C(=O)NCC#N)cccc2n1-c1nc2c(c(NCc3ccccc3)n1)CCCC2 | 0.312 µM | 1.28 µM | 0.328 µM | 3.03 µM | 0.34 µM | 1.98 µM | – | – | 0.28 µM | 1.24 µM | 0.331 µM | 0.976 µM | 0.384 µM | 2.48 µM | 0.303 µM | 1.05 µM | 0.201 µM | 0.618 µM | 0.242 µM | 0.643 µM |
| C=C1C[C@@H](O)[C@@H](Br)C(C)(C)[C@]12CCC(C)(Br)C(Cl)C2 (some centres not stated) | 16.7 µM | > 50 µM and 37.7 µM | 22.5 µM | > 50 µM and 56 µM | 21.7 µM | > 50 µM and 50.1 µM | 18.6 µM | > 50 µM and 34.2 µM | 18.5 µM | > 50 µM and 34.1 µM | 15.7 µM | > 50 µM and 29.8 µM | 18.7 µM | > 50 µM and 36 µM | 1.95 µM | 50 µM and 16.4 µM | 16.5 µM | > 50 µM and 33.4 µM | 0.28 µM | 16.7 µM and 10.5 µM |
| CON=C1C[C@]2(C[C@@H]3C[C@@H](C/C=C(\C)C[C@@H](C)/C=C/C=C4\CO[C@@H]5[C@H](O)C(C)=C[C@@H](C(=O)O3)[C@]45O)O2)O[C@H](/C(C)=C/C(C)C)[C@H]1C | 13.8 µM | 29.1 µM | 14.4 µM | 29 µM | 16.3 µM | 39.1 µM | 16.9 µM | 32.9 µM | 15.2 µM | 29.3 µM | 17.8 µM | 33.4 µM | 7.55 µM | 20.1 µM | 11.1 µM | 25.3 µM | 17.1 µM | 34.4 µM | 8.1 µM | 21.9 µM |
| Nc1nc(=S)c2ncn(C3OC(CO)C(O)C3O)c2[nH]1 (configuration not stated) | 3.69 µM | > 33.6 µM | 0.4 µM | – | 0.903 µM | > 100 µM | 31.8 µM | > 100 µM | 0.944 µM | 42.6 µM | 0.633 µM | > 64.8 µM | 0.542 µM | > 100 µM | 0.981 µM | > 100 µM | 1.2 µM | 31.1 µM | 1.79 µM | > 27.8 µM |
